In patent publication US20100022014A1, “Method for Evaluating Obesity Controller” (Kao Corporation, priority 2006, published 2010):

Test system: insulin secretion
Test: Postprandial insulin secretion after oral glucose + triolein emulsion with added 1-monoolein (Example 5)
Assay type: in vivo, mouse
Details: MAG in a one-tenth or one-fifth amount, in words
Description: Triolein (obtained from Sigma Corp.) was used as triacylglycerol, and 1-monoolein (obtained from Sigma Corp.) was used as monoacylglycerol. Glucose (Kanto Chemical Co., Inc.) was used as the carbohydrate.
Eight fasted mice (C57BL/6J, male, 8 weeks old) were grouped in each group, and the mice were orally administered, using a sonde, with 2 mg/g of body weight of glucose only; with the glucose and also 2 mg/g of body weight of triolein (TAG), in the form of an emulsion obtained by emulsifying 0.02 mg/g of body weight of the lipid with egg yolk lecithin (Glucose and TAG/MAG0, respectively); or with mixtures obtained by respectively adding 0.08, 0.2 and 0.4 mg/g of body weight of 1-monoolein (MAG) to the emulsion (TAG/MAG1, TAG/MAG2, and TAG/MAG3, respectively). The blood was sampled from the orbital vein of each mouse before the administration, and at 10 and 30 minutes after the administration, the blood insulin level was measured, and the area under curve (AUC) of the graph was calculated. The insulin level was measured by the ELISA method (insulin measuring kit, Morinaga Biochemical Lab, Inc.).
Relative values of the amount of secreted insulin (AUC) for 30 minutes after the administration, with respective to the insulin AUC value of the mice which ingested glucose only, taken as 100, are presented in Table 9.

How did the “Effect on postprandial insulin secretion relative to TAG/MAG0” value turn out when `CCCCCCCC/C=C\CCCCCCCC(=O)OCC(O)CO` (stereo not shown) [MAG, 1-monoolein] was run?
Its value is “effect of suppressing the postprandial insulin secretion in the blood was recognized”.
